Data taken from patent US11878955B1, “3,3′,3″-nitrilotris(1-(naphthalen-2-yloxy)propan-2-ol) as an eco-friendly insecticidal agent against Spodoptera littoralis (boisd.)” (priority 2023, dated 2024).
Values after ≈ are worked out from the molar mass of the structure shown.

Tested on: Spodoptera littoralis larvae (2nd and 4th instars)
Test: Insecticidal bioassay screening (castor leaf dip)
Type: in vivo
Conditions: for LC50 (ppm): after 72 h of treatment; for Toxic ratio: 72 h, fenoxycarb's LC50 / the compound's LC50 × 100
Method: Five concentrations (200, 100, 50, 25, 12.5 ppm) were designed for this synthetic compound and the reference fenoxycarb compound as the dynamic ingredients based on ppm via diluting the commercial formulation.
In this experiment, castor leaves are immersed in each of the previously prepared concentrations of the components for 10 seconds and then left to dry for 60 minutes. Larvae of the second and fourth instars of each checked strain are prepared with treated leaves in gauze-covered glass containers for 72 hrs. An untreated control is made in which leaves are dipped in triton x-100 and distilled water only. Then the preserved leaves were removed & fresh, untreated leaves were provided for 72 hours. Three replicates (10 larvae each) were checked for each concentration. Daily inspection was carried out for all treatments and mortality percentages were recorded 3 days (72 hours) after treatment. The average mortality percentage was corrected employing Abbott's formula. The corrected mortality rate for each of the previously synthesized compounds is statistically calculated according to Finney (1970). Through this rate, the corresponding concentration test lines (LDP lines) are assessed. Fifty and ninety percent mortality are determined, and the regression values for the checked products were previously evaluated.

With `CCOC(=O)NCCOc1ccc(Oc2ccccc2)cc1` [Fenoxycarb, reference compound] the “LC50 (ppm)” value (2nd instar larvae of S. littoralis) was 2.73 ppm, the Toxic ratio (2nd instar larvae) was 100 and the “LC50 (ppm)” value (4th instar larvae of S. littoralis) was 43.231 ppm. It also gave a Toxic ratio (4th instar larvae) of 100 and an LC50 (Spodoptera littoralis, foliar) of 2.73 µg/mL (≈ 9.06 µM).
